Source: patent US20050004024A1, “Methods of treating Pin1 associated disorders by covalent modification of active site residues” (PINTEX PHARMACEUTICALS, INC., priority 2003, published 2005)

Molecular target: Pin1 (Homo sapiens, UniProt Q13526)
Assay: Time dependent inactivation of Pin1 (pre-incubation, then protease coupled Pin1 assay)
Type: biochemical
Settings: 7.4 uM Pin1 incubated with 200 uM compound, 1% DMF, 35 mM hepes pH 7.8; aliquots diluted to 1 nM Pin1; FIG. 2
Procedure: Pin1 was incubated with Fred-A to determine the effect on peptidyl prolyl isomerase activity.
(§1) A solution containing 7.4 uM Pin1, 100 uM juglone 1% DMF, in 35 mM hepes pH 7.8 was incubated. At various time points, aliquots were removed and diluted into assay buffer containing 1 nM Pin1, 13.5 nM juglone, 0.1 mg/ml BSA, 0.2 mM DTT, and 35 mM Hepes pH 7.8. Pin1 activity was measured by using a protease coupled Pin1 assay.
Aliquots of the incubation mixtures were diluted 7,200 fold into assay buffer (0.1 mg/mL BSA, 0.2 mM DTT and 35 mM Hepes pH 7.8) to a final Pin1 concentration of 1 nM. 20 uL of a 0.4 mg/mL trypsin solution in 35 mM Hepes pH 7.8 was added to 1.2 mL Pin1 solution. The enzymatic reaction was initiated by the addition of 3 uL the substrate solution (15/mg/mL of Ac-Ala-Ala-(PO3)Ser-Pro-Arg-pNA dissolved in a solution of 0.5 M LiCl in trifluroethanol). The reaction progress was monitored at 390 nm for 8 minutes at 4° C.
as §1, with “200” for “100”, “27” for “13.5”, “as described above for juglone.” for “by using a protease coupled Pin1 assay.”

Sequence of Pin1 (Q13526 whole entry): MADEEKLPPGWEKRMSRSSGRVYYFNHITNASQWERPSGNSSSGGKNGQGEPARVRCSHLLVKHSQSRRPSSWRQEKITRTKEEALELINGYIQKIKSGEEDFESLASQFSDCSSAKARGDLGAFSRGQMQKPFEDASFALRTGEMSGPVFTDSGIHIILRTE

## Fredericamycin A [Fred-A]
  effect on peptidyl prolyl isomerase activity / covalent modification of Pin1: modified in a manner consistent with covalent modification of the active site
